Data from patent publication US20220274954A1, “SUBSTITUTED N-PHENYL-N-AMINOUARCILS AND SALTS THEREOF AND USE THEREOF AS HERBICIDAL AGENTS” (Bayer Aktiengesellschaft, priority 2019, published 2022).

Tests used:
Format in all cases: in vivo
[1] = tested on: Glycine max; test: Post-emergence crop plant compatibility
Experimental: (§1) Seeds of monocotyledonous and dicotyledonous weeds and crop plants were placed in sandy loam in plastic or wood-fiber pots, covered with soil and cultivated in a greenhouse under controlled growth conditions. 2 to 3 weeks after sowing, the test plants were treated at the one-leaf stage. The compounds of the invention, formulated in the form of wettable powders (WP) or as emulsion concentrates (EC), were then sprayed onto the green parts of the plants as aqueous suspension or emulsion with addition of 0.5% additive at a water application rate of […] (converted). After the test plants had been kept in the greenhouse under optimum growth conditions for about 3 weeks, the activity of the preparations was rated visually in comparison to untreated controls. For example, 100% activity=the plants have died, 0% activity=like control plants.
(§2) Here, the observed effects on selected crop plants are stated in comparison to the untreated controls (values in %).

[2] = tested on: Oryza sativa; test: Post-emergence crop plant compatibility
Experimental: as §1, §2

[3] = tested on: Triticum aestivum; test: Post-emergence crop plant compatibility
Experimental: as §1, §2

[4] = tested on: Brassica napus; test: Post-emergence crop plant compatibility
Experimental: as §1, §2

[5] = tested on: Zea mays; test: Post-emergence crop plant compatibility
Experimental: as §1, §2

[6] = tested on: Viola tricolor; test: Post-emergence herbicidal action; conditions: Viola tricolor, 504 h, read-out: Viola tricolor (efficacy in %); for pest or weed control at 5 g/ha: application rate 5 g/ha
Experimental: as §1, with “plants. Tables A1 to A14 below show the effects of selected compounds of the general formula (I) according to Tables I.1 to I.34 on various harmful plants and at an application rate corresponding to 20 g/ha and less, which were obtained by the experimental procedure mentioned above.” for “plants.”

[7] = tested on: Veronica persica; test: Post-emergence herbicidal action; conditions: Veronica persica, 504 h, read-out: Veronica persica (efficacy in %); for pest or weed control at 5 g/ha: application rate 5 g/ha; for pest or weed control at 20 g/ha: application rate 20 g/ha
Experimental: as §1, with “plants. Tables A1 to A14 below show the effects of selected compounds of the general formula (I) according to Tables I.1 to I.34 on various harmful plants and at an application rate corresponding to 20 g/ha and less, which were obtained by the experimental procedure mentioned above.” for “plants.”

[8] = tested on: Echinochloa crus-galli; test: Post-emergence herbicidal action; conditions: Echinochloa crus-galli, 504 h, read-out: Echinochloa crus-galli (efficacy in %); for pest or weed control at 20 g/ha: application rate 20 g/ha
Experimental: as §1, with “plants. Tables A1 to A14 below show the effects of selected compounds of the general formula (I) according to Tables I.1 to I.34 on various harmful plants and at an application rate corresponding to 20 g/ha and less, which were obtained by the experimental procedure mentioned above.” for “plants.”

[9] = tested on: Setaria viridis; test: Post-emergence herbicidal action; conditions: 504 h, read-out: Setaria viridis (efficacy in %); for pest or weed control at 5 g/ha: application rate 5 g/ha; for pest or weed control at 20 g/ha: application rate 20 g/ha
Experimental: as §1, with “plants. Tables A1 to A14 below show the effects of selected compounds of the general formula (I) according to Tables I.1 to I.34 on various harmful plants and at an application rate corresponding to 20 g/ha and less, which were obtained by the experimental procedure mentioned above.” for “plants.”

[10] = tested on: Abutilon theophrasti; test: Post-emergence herbicidal action; conditions: Abutilon theophrasti, 504 h, read-out: Abutilon theophrasti (efficacy in %); for pest or weed control at 20 g/ha: application rate 20 g/ha
Experimental: as §1, with “plants. Tables A1 to A14 below show the effects of selected compounds of the general formula (I) according to Tables I.1 to I.34 on various harmful plants and at an application rate corresponding to 20 g/ha and less, which were obtained by the experimental procedure mentioned above.” for “plants.”

[11] = tested on: Stellaria media; test: Post-emergence herbicidal action
Experimental: as §1, with “plants. Tables A1 to A14 below show the effects of selected compounds of the general formula (I) according to Tables I.1 to I.34 on various harmful plants and at an application rate corresponding to 20 g/ha and less, which were obtained by the experimental procedure mentioned above.” for “plants.”

[12] = tested on: Polygonum convolvulus; test: Post-emergence herbicidal action; conditions: Fallopia convolvulus, 504 h, read-out: Polygonum convolvulus (efficacy in %); for pest or weed control at 5 g/ha: application rate 5 g/ha; for pest or weed control at 20 g/ha: application rate 20 g/ha
Experimental: as §1, with “plants. Tables A1 to A14 below show the effects of selected compounds of the general formula (I) according to Tables I.1 to I.34 on various harmful plants and at an application rate corresponding to 20 g/ha and less, which were obtained by the experimental procedure mentioned above.” for “plants.”

[13] = tested on: Pharbitis purpurea; test: Post-emergence herbicidal action; conditions: Ipomoea purpurea, 504 h, read-out: Pharbitis purpurea (efficacy in %); for pest or weed control at 5 g/ha: application rate 5 g/ha; for pest or weed control at 20 g/ha: application rate 20 g/ha
Experimental: as §1, with “plants. Tables A1 to A14 below show the effects of selected compounds of the general formula (I) according to Tables I.1 to I.34 on various harmful plants and at an application rate corresponding to 20 g/ha and less, which were obtained by the experimental procedure mentioned above.” for “plants.”

[14] = tested on: Amaranthus retroflexus; test: Post-emergence herbicidal action; conditions: Amaranthus retroflexus, 504 h, read-out: Amaranthus retroflexus (efficacy in %); for pest or weed control at 5 g/ha: application rate 5 g/ha
Experimental: as §1, with “plants. Tables A1 to A14 below show the effects of selected compounds of the general formula (I) according to Tables I.1 to I.34 on various harmful plants and at an application rate corresponding to 20 g/ha and less, which were obtained by the experimental procedure mentioned above.” for “plants.”

[15] = tested on: Alopecurus myosuroides; test: Post-emergence herbicidal action; conditions: application rate 20 g/ha
Experimental: as §1, with “plants. Tables A1 to A14 below show the effects of selected compounds of the general formula (I) according to Tables I.1 to I.34 on various harmful plants and at an application rate corresponding to 20 g/ha and less, which were obtained by the experimental procedure mentioned above.” for “plants.”

[16] = tested on: Matricaria inodora; test: Post-emergence herbicidal action; conditions: Tripleurospermum inodorum, 504 h, read-out: Matricaria inodora (efficacy in %)
Experimental: as §1, with “plants. Tables A1 to A14 below show the effects of selected compounds of the general formula (I) according to Tables I.1 to I.34 on various harmful plants and at an application rate corresponding to 20 g/ha and less, which were obtained by the experimental procedure mentioned above.” for “plants.”

[17] = tested on: Lolium rigidum; test: Post-emergence herbicidal action; conditions: application rate 20 g/ha
Experimental: as §1, with “plants. Tables A1 to A14 below show the effects of selected compounds of the general formula (I) according to Tables I.1 to I.34 on various harmful plants and at an application rate corresponding to 20 g/ha and less, which were obtained by the experimental procedure mentioned above.” for “plants.”

[18] = tested on: Avena fatua; test: Post-emergence herbicidal action; conditions: application rate 20 g/ha
Experimental: as §1, with “plants. Tables A1 to A14 below show the effects of selected compounds of the general formula (I) according to Tables I.1 to I.34 on various harmful plants and at an application rate corresponding to 20 g/ha and less, which were obtained by the experimental procedure mentioned above.” for “plants.”

[19] = tested on: Digitaria sanguinalis; test: Post-emergence herbicidal action; conditions: 504 h, read-out: Digitaria sanguinalis (efficacy in %)
Experimental: as §1, with “plants. Tables A1 to A14 below show the effects of selected compounds of the general formula (I) according to Tables I.1 to I.34 on various harmful plants and at an application rate corresponding to 20 g/ha and less, which were obtained by the experimental procedure mentioned above.” for “plants.”

Row | Structure (SMILES) | Oryza sativa (efficacy in %) ([2]; application rate 1.25 g/ha) [%] | pest or weed control at 5 g/ha [6] [%] | pest or weed control at 5 g/ha [7] [%] | pest or weed control at 20 g/ha [7] [%] | pest or weed control at 20 g/ha [8] [%] | pest or weed control at 5 g/ha [9] [%] | pest or weed control at 20 g/ha [9] [%] | pest or weed control at 20 g/ha [10] [%] | pest or weed control at 5 g/ha [12] [%] | pest or weed control at 20 g/ha [12] [%] | pest or weed control at 5 g/ha [13] [%] | pest or weed control at 20 g/ha [13] [%] | pest or weed control at 5 g/ha [14] [%] | other results
1 | Nn1c(C(F)(F)F)cc(=O)n(-c2cc(Sc3cccnc3OCCC(=O)OCc3ccccc3)c(Cl)cc2F)c1=O [I.5-457, Benzyl 3-{[3-({5-[3-amino-2,6-dioxo-4-(trifluoromethyl)-3,6-dihydropyrimidin-1(2H)-yl]-2-chloro-4-fluorophenyl}sulfanyl)pyridin-2-yl]oxy}propanoate] | 0 | 100 | 100 | 100 | 80 | 100 | 100 | 80 | 90 | 100 | 90 | 90 | 100 | Glycine max (efficacy in %) ([1]; application rate 1.25 g/ha): 0%; Glycine max (efficacy in %) ([1]; application rate 5 g/ha): 10%; Oryza sativa (efficacy in %) ([2]; application rate 5 g/ha): 10%; Triticum aestivum (efficacy in %) ([3]; application rate 5 g/ha): 20%; Brassica napus (efficacy in %) ([4]; application rate 1.25 g/ha): 0%; Brassica napus (efficacy in %) ([4]; application rate 5 g/ha): 10%; Zea mays (efficacy in %) ([5]; application rate 5 g/ha): 20%; Stellaria media (efficacy in %) ([11]; application rate 5 g/ha): 80%; Stellaria media (efficacy in %) ([11]; application rate 20 g/ha): 100%
2 | COCCOCCOC(=O)COc1ncccc1Sc1cc(-n2c(=O)cc(C(F)(F)F)n(N)c2=O)c(F)cc1Cl [I.1-23, 2-(2-Methoxyethoxy)ethyl {[3-({5-[3-amino-2,6-dioxo-4-(trifluoromethyl)-3,6-dihydropyrimidin-1(2H)-yl]-2-chloro-4-fluorophenyl}sulfanyl)pyridin-2-yl]oxy}acetate] | 20 | 100 | 100 | 100 | 100 | 100 | 100 | 100 | 100 | 100 | 80 | 100 | 100 | Triticum aestivum (efficacy in %) ([3]; application rate 1.25 g/ha): 20%; Zea mays (efficacy in %) ([5]; application rate 1.25 g/ha): 20%; pest or weed control at 20 g/ha ([6]; application rate 20 g/ha): 100%; Alopecurus myosuroides (efficacy in %) [15]: 90%; pest or weed control at 5 g/ha ([16]; application rate 5 g/ha): 80%; pest or weed control at 20 g/ha ([16]; application rate 20 g/ha): 100%; pest or weed control at 5 g/ha ([8]; application rate 5 g/ha): 80%; Lolium rigidum (efficacy in %) [17]: 80%; pest or weed control at 5 g/ha ([10]; application rate 5 g/ha): 100%; Avena fatua (efficacy in %) [18]: 100%; pest or weed control at 5 g/ha ([19]; application rate 5 g/ha): 100%; pest or weed control at 20 g/ha ([19]; application rate 20 g/ha): 100%; pest or weed control at 20 g/ha ([14]; application rate 20 g/ha): 100%
